Assay results as given in patent publication US9617271B2, “Triazolo compounds” (Hoffmann-La Roche Inc., priority 2012, dated 2017).
pIC50: −log10 of the molar value.

Target: human PDE10A (Homo sapiens (Human), UniProt Q9Y233)
Test: human PDE10A full length assay ([3H]-cGMP SPA)
Assay type: biochemical
Conditions: human PDE10A full length enzyme, 50 nM cGMP + 50 nM [3H]-cGMP, 20 minutes at room temperature; read-out: PDE10A inhibition IC50
Protocol: The human PDE10A full length assay was performed in 96-well micro titer plates. The reaction mixture of 50 μl contained 20 mM HEPES pH=7.5/10 mM MgCl2/0.05 mg/ml BSA (Sigma cat. #A-7906), 50 nM cGMP (Sigma, cat. #G6129) and 50 nM [3H]-cGMP (GE Healthcare, cat. #TRK392 S.A. 13.2 Ci/mmol), 3.75 ng/well PDE10A enzyme (Enzo Life Science, Lausen, Switzerland cat #SE-534) with or without a specific test compound. A range of concentrations of the potential inhibitor was used to generate data for calculating the concentration of inhibitor resulting in 50% of the effect (e.g. IC50, the concentration of the competitor inhibiting PDE10A activity by 50%). Non-specific activity was tested without the enzyme. The reaction was initiated by the addition of the substrate solution (cGMP and [3H]-cGMP) and allowed to progress for 20 minutes at room temperature. The reaction was terminated by adding 25 μl of YSi-SPA scintillation beads (GE Healthcare, cat. #RPNQ0150) in 18 mM zinc sulphate solution (stop reagent). After 1 h under shaking, the plate was centrifuged one minute at 170 g to allow beads to settle. Afterwards, radioactive counts were measured on a Perkin Elmer TopCount Scintillation plate reader.

human PDE10A, sequence (Q9Y233 other isoform, or with tags, fused parts or gaps): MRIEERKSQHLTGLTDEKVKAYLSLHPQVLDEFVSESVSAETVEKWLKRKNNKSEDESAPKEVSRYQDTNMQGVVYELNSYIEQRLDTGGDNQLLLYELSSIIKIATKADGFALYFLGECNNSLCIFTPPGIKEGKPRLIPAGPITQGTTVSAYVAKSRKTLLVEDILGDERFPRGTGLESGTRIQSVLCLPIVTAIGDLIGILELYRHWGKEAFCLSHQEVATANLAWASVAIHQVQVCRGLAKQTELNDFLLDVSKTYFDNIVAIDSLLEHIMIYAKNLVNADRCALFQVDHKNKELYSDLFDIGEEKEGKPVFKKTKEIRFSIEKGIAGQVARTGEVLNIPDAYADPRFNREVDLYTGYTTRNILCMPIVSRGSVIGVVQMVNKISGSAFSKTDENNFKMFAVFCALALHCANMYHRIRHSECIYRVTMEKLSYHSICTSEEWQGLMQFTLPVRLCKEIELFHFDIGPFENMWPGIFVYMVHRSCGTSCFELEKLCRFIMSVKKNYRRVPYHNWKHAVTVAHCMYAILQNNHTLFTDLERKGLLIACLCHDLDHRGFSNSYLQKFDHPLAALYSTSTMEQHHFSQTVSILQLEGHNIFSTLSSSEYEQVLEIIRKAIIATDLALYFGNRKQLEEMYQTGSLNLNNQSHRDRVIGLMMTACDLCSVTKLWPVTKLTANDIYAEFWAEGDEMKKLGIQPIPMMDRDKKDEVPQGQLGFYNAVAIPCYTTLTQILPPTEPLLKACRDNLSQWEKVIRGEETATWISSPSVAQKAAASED

| SMILES | pIC50 |
| --- | --- |
| CCN(CC)c1nc(CCc2nc(N3CCCC3)nn2C)nn2c(C)c(C)nc12 [Example 35, N,N-Diethyl-6,7-dimethyl-2-(2-(1-methyl-3-(pyrrolidin-1-yl)-1H-1,2,4-triazol-5-yl)ethyl)imidazo[1,2-f][1,2,4]triazin-4-amine] | 8.85 |
| Cn1nc(N2CCCC2)nc1C#Cc1ccc2nc(Cl)cn2n1 [Example 36, 2-Chloro-6-((1-methyl-3-(pyrrolidin-1-yl)-1H-1,2,4-triazol-5-yl)ethynyl)imidazo[1,2-b]pyridazine] | 7.25 |
| Cn1nc(N2CCCC2)nc1CCc1ccc2nc(Cl)cn2n1 [Example 37, 2-Chloro-6-(2-(1-methyl-3-(pyrrolidin-1-yl)-1H-1,2,4-triazol-5-yl)ethyl)imidazo[1,2-b]pyridazine] | 6.47 |
| CNC(=O)c1cc(CCc2nc(N3CCCC3)nn2C)nn2c(C)c(C)nc12 [Example 41, N,2,3-Trimethyl-6-(2-(1-methyl-3-(pyrrolidin-1-yl)-1H-1,2,4-triazol-5-yl)ethyl)imidazo-[1,2-b]pyridazine-8-carboxamide] | 8.70 |
| Cc1nc2c(C(C)C)cc(CCc3nc(N4CCCC4)nn3C)nn2c1C [Example 45, 8-Isopropyl-2,3-dimethyl-6-(2-(1-methyl-3-(pyrrolidin-1-yl)-1H-1,2,4-triazol-5-yl)ethyl)-imidazo[1,2-b]pyridazine] | 8.05 |
| Cc1nc2c(C3CCC3)cc(CCc3nc(N4CCCC4)nn3C)nn2c1C [Example 48, 8-Cyclobutyl-2,3-dimethyl-6-(2-(1-methyl-3-(pyrrolidin-1-yl)-1H-1,2,4-triazol-5-yl)ethyl)imidazo[1,2-b]pyridazine] | 8.64 |
| Cc1nc2c(C3CC3)cc(CCc3nc(N4CCCC4)nn3C)nn2c1C [Example 49, 8-Cyclopropyl-2,3-dimethyl-6-(2-(1-methyl-3-(pyrrolidin-1-yl)-1H-1,2,4-triazol-5-yl)ethyl)imidazo[1,2-b]pyridazine] | 8.54 |
| Cc1nn2ccc(CCc3nc(N4CCCC4)nn3C)nc2c1C [Example 53, 2,3-dimethyl-5-(2-(1-methyl-3-(pyrrolidin-1-yl)-1H-1,2,4-triazol-5-yl)ethyl)pyrazolo[1,5-a]pyrimidine] | 8.68 |
| Cc1nnc2ccc(C#Cc3nc(N4CCCC4)nn3C)nn12 [Example 56, 3-Methyl-6-((1-methyl-3-(pyrrolidin-1-yl)-1H-1,2,4-triazol-5-yl)ethynyl)[1,2,4]triazolo-[4,3-b]pyridazine] | 7.42 |
| Cc1nnc2ccc(CCc3nc(N4CCCC4)nn3C)nn12 [Example 57, 3-Methyl-6-(2-(1-methyl-3-(pyrrolidin-1-yl)-1H-1,2,4-triazol-5-yl)ethyl)[1,2,4]triazolo[4,3-b]pyridazine] | 6.27 |
| Cc1nc2cc(C3CCCCC3)c(CCc3nc(N4CCCC4)nn3C)nn2c1C [Example 58, 7-Cyclohexyl-2,3-dimethyl-6-(2-(1-methyl-3-(pyrrolidin-1-yl)-1H-1,2,4-triazol-5-yl)ethyl)imidazo[1,2-b]pyridazine] | 7.70 |
| Cc1cn2nc(C)c(C)c2nc1CCc1nc(N2CCCC2)nn1C [Example 61, 2,3,6-Trimethyl-5-(2-(1-methyl-3-(pyrrolidin-1-yl)-1H-1,2,4-triazol-5-yl)ethyl)pyrazolo[1,5-a]pyrimidine] | 7.12 |
| Cc1c(C(F)(F)F)nc2c(OCC(F)(F)F)cc(CCc3nc(N4CCCC4)nn3C)nn12 [Example 63, 3-Methyl-6-(2-(1-methyl-3-(pyrrolidin-1-yl)-1H-1,2,4-triazol-5-yl)ethyl)-8-(2,2,2-trifluoroethoxy)-2-(trifluoromethyl)imidazo[1,2-b]pyridazine] | 8.03 |
| Cc1c(Cl)nc2ccc(CCc3nc(N4CCCC4)nn3C)nn12 [Example 64, 2-Chloro-3-methyl-6-(2-(1-methyl-3-(pyrrolidin-1-yl)-1H-1,2,4-triazol-5-yl)ethyl)imidazo[1,2-b]pyridazine] | 8.26 |
| Cc1nc2ccc(CCc3nc(N4CCCC4)nn3C)nn2c1Cl [Example 66, 3-Chloro-2-methyl-6-(2-(1-methyl-3-(pyrrolidin-1-yl)-1H-1,2,4-triazol-5-yl)ethyl)imidazo[1,2-b]pyridazine] | 7.84 |
| Cc1cn2nc(CCc3nc(N4CCCC4)nn3C)ccc2n1 [Example 68, 2-Methyl-6-(2-(1-methyl-3-(pyrrolidin-1-yl)-1H-1,2,4-triazol-5-yl)ethyl)imidazo[1,2-b]pyridazine] | 6.84 |

Results, then the molecule that gave them:

| pIC50 | SMILES |
| --- | --- |
| 8.88 | Cc1c(Cl)nc2ccc(C#Cc3nc(N4CCCC4)nn3C)nn12 [Example 38, 2-Chloro-3-methyl-6-((1-methyl-3-(pyrrolidin-1-yl)-1H-1,2,4-triazol-5-yl)ethynyl)-imidazo[1,2-b]pyridazine] |
| 5.85 | CNC(=O)c1cc2nc(C)c(C)n2nc1C#Cc1nc(N2CCCC2)nn1C [Example 39, N,2,3-Trimethyl-6-((1-methyl-3-(pyrrolidin-1-yl)-1H-1,2,4-triazol-5-yl)ethynyl)imidazo[1,2-b]pyridazine-7-carboxamide] |
| 9.00 | CNC(=O)c1cc(C#Cc2nc(N3CCCC3)nn2C)nn2c(C)c(C)nc12 [Example 40, N,2,3-Trimethyl-6-((1-methyl-3-(pyrrolidin-1-yl)-1H-1,2,4-triazol-5-yl)ethynyl)imidazo-[1,2-b]pyridazine-8-carboxamide] |
| 7.96 | Cc1nc2cc(C(F)(F)F)c(C#Cc3nc(N4CCCC4)nn3C)nn2c1C [Example 42, 2,3-Dimethyl-6-((1-methyl-3-(pyrrolidin-1-yl)-1H-1,2,4-triazol-5-yl)ethynyl)-7-(trifluoro-methyl)imidazo[1,2-b]pyridazine] |
| 9.00 | Cc1nc2c(C(C)C)cc(C#Cc3nc(N4CCCC4)nn3C)nn2c1C [Example 44, 8-Isopropyl-2,3-dimethyl-6-((1-methyl-3-(pyrrolidin-1-yl)-1H-1,2,4-triazol-5-yl)ethynyl)imidazo[1,2-b]pyridazine] |
| 9.00 | Cc1nc2c(C3CC3)cc(C#Cc3nc(N4CCCC4)nn3C)nn2c1C [Example 46, 8-Cyclopropyl-2,3-dimethyl-6-((1-methyl-3-(pyrrolidin-1-yl)-1H-1,2,4-triazol-5-yl)ethynyl)imidazo[1,2-b]pyridazine] |
| 9.05 | Cc1nc2c(C3CCC3)cc(C#Cc3nc(N4CCCC4)nn3C)nn2c1C [Example 47, 8-Cyclobutyl-2,3-dimethyl-6-((1-methyl-3-(pyrrolidin-1-yl)-1H-1,2,4-triazol-5-yl)ethynyl)imidazo[1,2-b]pyridazine] |
| 8.59 | Cc1nc2cc(C(C)C)c(C#Cc3nc(N4CCCC4)nn3C)nn2c1C [Example 50, 7-Isopropyl-2,3-dimethyl-6-((1-methyl-3-(pyrrolidin-1-yl)-1H-1,2,4-triazol-5-yl)ethynyl)imidazo[1,2-b]pyridazine] |
| 9.22 | Cc1nc2cc(C3CCC3)c(C#Cc3nc(N4CCCC4)nn3C)nn2c1C [Example 51, 7-Cyclobutyl-2,3-dimethyl-6-((1-methyl-3-(pyrrolidin-1-yl)-1H-1,2,4-triazol-5-yl)ethynyl)imidazo[1,2-b]pyridazine] |
| 8.59 | Cc1nn2ccc(C#Cc3nc(N4CCCC4)nn3C)nc2c1C [Example 52, 2,3-Dimethyl-5-((1-methyl-3-(pyrrolidin-1-yl)-1H-1,2,4-triazol-5-yl)ethynyl)pyrazolo[1,5-a]pyrimidine] |
| 8.80 | Cc1cc(C#Cc2nc(N3CCCC3)nn2C)nn2c(C)c(C(F)(F)F)nc12 [Example 54, 3,8-Dimethyl-6-((1-methyl-3-(pyrrolidin-1-yl)-1H-1,2,4-triazol-5-yl)ethynyl)-2-(trifluoro-methyl)imidazo[1,2-b]pyridazine] |
| 7.77 | Cc1cc(CCc2nc(N3CCCC3)nn2C)nn2c(C)c(C(F)(F)F)nc12 [Example 55, 3,8-Dimethyl-6-(2-(1-methyl-3-(pyrrolidin-1-yl)-1H-1,2,4-triazol-5-yl)ethyl)-2-(trifluoro-methyl)imidazo[1,2-b]pyridazine] |
| 8.57 | COc1cc2nc(C)c(C)n2nc1C#Cc1nc(N2CCCC2)nn1C [Example 60, 7-Methoxy-2,3-dimethyl-6-((1-methyl-3-(pyrrolidin-1-yl)-1H-1,2,4-triazol-5-yl)ethynyl)imidazo[1,2-b]pyridazine] |
| 8.52 | Cc1c(C(F)(F)F)nc2c(OCC(F)(F)F)cc(C#Cc3nc(N4CCCC4)nn3C)nn12 [Example 62, 3-Methyl-6-((1-methyl-3-(pyrrolidin-1-yl)-1H-1,2,4-triazol-5-yl)ethynyl)-8-(2,2,2-trifluoroethoxy)-2-(trifluoromethyl)imidazo[1,2-b]pyridazine] |
| 8.60 | Cc1nc2ccc(C#Cc3nc(N4CCCC4)nn3C)nn2c1Cl [Example 65, 3-Chloro-2-methyl-6-((1-methyl-3-(pyrrolidin-1-yl)-1H-1,2,4-triazol-5-yl)ethynyl)imidazo[1,2-b]pyridazine] |
| 7.99 | Cc1cn2nc(C#Cc3nc(N4CCCC4)nn3C)ccc2n1 [Example 67, 2-Methyl-6-((1-methyl-3-(pyrrolidin-1-yl)-1H-1,2,4-triazol-5-yl)ethynyl)imidazo[1,2-b]pyridazine] |
| 8.68 | CNC(=O)c1cc(C#Cc2nc(N3CCCC3)nn2C)nn2c(C)c(C(F)(F)F)nc12 [Example 69, N,3-Dimethyl-6-((1-methyl-3-(pyrrolidin-1-yl)-1H-1,2,4-triazol-5-yl)ethynyl)-2-(trifluoromethyl)imidazo[1,2-b]pyridazine-8-carboxamide] |
